{"source": "patent US20230331679A1", "about": "“NAPHTHALENE MONOIMIDE COMPOUNDS AND METHODS THEREOF” (JAWAHARLAL NEHRU CENTRE FOR ADVANCED SCIENTIFIC RESEARCH, priority 2020, published 2023)", "key": {"[1]": {"molecular_target": "T1, Aβ42 fibrils (Homo sapiens, UniProt P05067)", "T1 construct": "commercially available β-amyloid peptide (1-42), human; purchased marck (so in the source) PP69-.025 mg", "T1 sequence (P05067 672-713 limits assumed)": "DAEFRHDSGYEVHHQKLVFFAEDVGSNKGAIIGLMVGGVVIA", "assay": "Dot blot analysis of Aβ42 fibrils with OC antibody", "type": "biochemical", "description": "The inhibition ability of TGR63 was further supported through dot blot ([…]) analysis which was used to evaluate the amount of Aβ42 fibrils. 10 µM of freshly prepared Aβ42 sample was incubated with TGR63 and alone independently for 48 h without shaking. The incubated samples were dotted on the PVDF membrane and allowed to dry. The PVDF membranes were blocked using 5% skimmed milk in PBS for 1 h at room temperature. The blots were washed (3 times) with 1% of Tween 20 containing PBS (PBST) for 10 min and incubated with OC (1:1000) primary antibody, specific to Aβ42 fibrils at 4° C. for 16 h. Then the unbound primary antibody was removed by PBST wash (3 times) and incubated with HRP conjugated anti-rabbit secondary antibody (Biorad, 1706515), which was diluted 10000 times. Further, nonspecific binding was removed with PBST wash and the blots were developed (chemiluminescent) and analyzed using BioRad ECL kit. […] Quantification of Aβ42 fibrils was done by firstly incubating 10 µM of Aβ42 peptide samples for 48 h at 37° C. The incubated samples were then spotted on a PVDF membrane and probed with OC (fibril specific, 1:1000) antibody to measure the amount of Aβ fibrils."}, "[2]": {"assay": "Octanol/water partition coefficient (LogP)", "type": "physicochemical", "description": "Pharmacokinetics of TGR63 in wild-type (WT) mice was performed to assess its in vivo efficacy. The lethal dose 50 (LD50) of TGR63 was determined in WT mice through intraperitoneal (IP) injection following the Organisation for Economic Cooperation and Development (OECD) guidelines. […] FIG. 7A illustrates the calculation of lethal dose 50% (LD50) of TGR63 through intraperitoneal administration and is represented as table of experimental details and the final observation was done on 14th day. FIG. 7B illustrates the mortality (%) plotted against TGR63 concentration and calculation of LD50. Twenty-five WT mice were segregated in five different groups (G1-5, N= 5 per group) and administered with varying doses of TGR63 (1.7, 5.5, 17.5 56.0 and 179.0 mg/kg body weight, respectively) through IP injection and their survival was monitored for 14 days. The serum stability and blood-brain barrier (BBB) crossing ability of TGR63 were assessed through matrix-assisted laser desorption ionization (MALDI) mass spectrometry analysis of blood and brain samples of vehicle and TGR63 treated mice. TGR63 and vehicle were administrated in WT mice and sacrificed after 1 and 24 h to collect the blood for MALDI mass analysis FIG. 8 depicts the MALDI mass analysis of vehicle (FIG. 8A) and TGR63 treated mice blood serum after 1 h (FIG. 8B) and 24 h (FIG. 8C) of administration. The presence of TGR63 in blood was confirmed from the mass analysis even after 24 h. […] TGR63 was incubated in PBS (10 mM, pH= 7.4) and blood serum in WT mice for different time intervals (0.5, 1, 2 and 6 h) at 37° C. to evaluate the serum stability under in vitro conditions. […] FIG. 9 depicts the Serum stability of TGR63 under in vitro conditions. TGR63 was incubated in PBS (10 mM, pH= 7.4) and blood serum (WT mouse) for different time (0.5, 1, 2 and 6 h) at 37° C. […] The partition coefficient (P), a valuable physical property was calculated to predict the BBB permeability. […] FIG. 10 depicts the calculation of LogP. […] The calculated positive logP value predicts the possible BBB crossing ability for TGR63. […]"}, "[3]": {"tested_on": "SHSY5Y cells", "assay": "Membrane toxicity modulation, immunocytochemistry in SHSY5Y cells", "type": "cell-based", "conditions": "Aβ42 pre-incubated 24 h with TGR63, 2 h treatment", "description": "Inspiring from the above-mentioned studies, membrane toxicity modulation ability of TGR63 through immunocytochemistry in SHSY5Y cells was also investigated. The cells were cultured in 35 mm confocal dishes and treated individually with Aβ42 samples, pre-incubated for 24 h in the presence and absence of TGR63 for 2 h under cell growing conditions. Then the experimental cells were washed and fixed using 4% paraformaldehyde (PFA) to probe the Aβ42 fibrils with OC (1:250) antibody, followed by red fluorescent labeled (λex= 633 nm and λem= 650 nm) secondary antibody (Alexa 633-A21052, Thermo). Finally, unbound antibody was washed and 4′,6-diamidino-2-phenylindole (DAPI) was used to stain the nucleus before the confocal imaging. For DAPI staining, experimental cells were incubated with DAPI (500 nM) solution (PBS) for 10 min at room temperature. Then, the cells were washed with PBS three times and imaged under confocal fluorescence microscope (λex= 358 nm, […]). FIG. 5 depicts the images obtained by nuclear staining of SHSY5Y cells with DAPI(blue) and Aβ42 fibrils staining with OC antibody and red fluorescent labelled secondary antibody."}}, "data": [{"smiles": "CN(C)c1ccc(C#Cc2ccc3c4c(cccc24)C(=O)N(CC[N+](C)(C)C)C3=O)cc1", "note": "[TGR63, 2-(6-((4-(dimethylamino)phenyl)ethynyl)-1,3-dioxo-1H-benzo[de]isoquinolin-2(3H)-yl)-N,N,N-trimethylethan-1-aminium]", "values": [{"measurement": "Aβ42 aggregates (quantification of dot blot)", "setting": "[1]; L2, 10 µM TGR63, 10 µM Aβ42, 48 h at 37° C.", "result": "~ 90%"}, {"measurement": "amount of Aβ42 fibrils decreased (blot image; Aβ42 alone 100%)", "setting": "[1]; L3, 50 µM TGR63, 10 µM Aβ42, 48 h", "result": "~ 50%"}, {"measurement": "Aβ42 aggregates (quantification of dot blot)", "setting": "[1]; L3, 50 µM TGR63, 10 µM Aβ42, 48 h at 37° C.", "result": "~ 40%"}, {"measurement": "logP", "setting": "[2]; calculated from octanol and water layer concentrations", "result": 0.1}, {"measurement": "concentration in octanol layer", "setting": "[2]; octanol/water partition", "result": 21.82, "unit": "µM"}, {"measurement": "concentration in water layer", "setting": "[2]; octanol/water partition", "result": 18.18, "unit": "µM"}, {"measurement": "OC red fluorescence signal of Aβ42 fibrils on plasma membrane", "setting": "[3]", "result": "lower red fluorescence signal on the plasma membrane"}]}]}
